In EP4603105A1, “PHARMACEUTICAL COMPOSITION CONTAINING CYCLIC COMPOUND HAVING SELECTIVE KRAS INHIBITORY EFFECT AGAINST HRAS AND NRAS” (CHUGAI SEIYAKU KABUSHIKI KAISHA, priority 2022, dated 2024):

Experiments:
[1] = biological target: GDP-bound NRAS wild-type protein (Homo sapiens, UniProt P01111); assay: Binding to NRAS by surface plasmon resonance (SPR), KD and KD ratio to KRAS; conditions: ratio of KD value for GDP-bound NRAS wild-type protein to KD value for KRAS (SPR)
Method in brief: (§1)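 GDP-loaded biotinylated Avi-tag RAS proteins (E. coli-expressed) captured on a Biotin CAPture chip at ~100–300 RU; single-cycle kinetics at 30°C, 100 µL/min, 75 s injections of rising compound concentrations. HBS pH 7.4 running buffer with 1 mM DTT, 10 mM MgCl2, 10 µM GDP, 4% DMSO. KD from 1:1 binding fit.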

HRAS wild-type protein = HRAS wild-type protein (Homo sapiens, UniProt P01112); assay: Binding to HRAS by surface plasmon resonance (SPR), KD and KD ratio to KRAS; conditions: ratio of KD value for HRAS wild-type protein to KD value for KRAS (SPR)
Sequence of HRAS wild-type protein (P01112 whole entry): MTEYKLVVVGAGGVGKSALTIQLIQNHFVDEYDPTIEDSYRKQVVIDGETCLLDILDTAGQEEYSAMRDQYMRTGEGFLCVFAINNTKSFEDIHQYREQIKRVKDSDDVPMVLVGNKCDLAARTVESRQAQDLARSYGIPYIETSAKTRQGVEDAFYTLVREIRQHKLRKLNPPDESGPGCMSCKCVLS
Method in brief: as §1

[2] = tested on: human lung cancer strain NCI-H441; format: cell-based
Method in brief: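 Readout: […] after the ATP-based reagent. Compound: serial dilutions in dimethyl sulfoxide.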

Sequence of GDP-bound NRAS wild-type protein (P01111 whole entry): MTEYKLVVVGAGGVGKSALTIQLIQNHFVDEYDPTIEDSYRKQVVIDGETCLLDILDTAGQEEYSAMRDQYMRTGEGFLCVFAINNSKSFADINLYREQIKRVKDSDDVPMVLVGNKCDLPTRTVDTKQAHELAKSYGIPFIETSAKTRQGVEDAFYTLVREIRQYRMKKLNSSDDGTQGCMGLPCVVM

SMILES	NRAS /KRAS [1]	HRAS /KRAS (HRAS wild-type protein)	IC50 [2] [nM]
CCO[C@@H]1C[C@H]2C(=O)NC3(CCC3)C(=O)N(C)[C@@H](C3CCCC3)C(=O)N(C)[C@H](C(=O)N3CCOCC3)CC(=O)N(C)[C@@H](CC3CC3)C(=O)N[C@@H]([C@@H](C)CC)C(=O)N(C)CC(=O)N(C)[C@H]3C/C=C\CCN(C3=O)[C@@H](Cc3ccc(F)cc3)C(=O)N(C)CC(=O)N[C@@H](CCc3cc(F)c(C(F)(F)F)c(F)c3)C(=O)N2C1 [PP1496]	A (a compound having 10 or more and less than 20 is denoted as A)	B (a compound having 3 or more and less than 10 is denoted as B)	36.7
CC[C@H](C)[C@@H]1NC(=O)[C@H](CC2CC2)N(C)C(=O)C[C@@H](C(=O)N(C)C)N(C)C(=O)[C@H](C2CCCC2)N(C)C(=O)C2(CCC2)NC(=O)[C@@H]2C[C@@H](F)CN2C(=O)[C@H](CCc2cc(F)c(C(F)(F)F)c(F)c2)NC(=O)CN(C)C(=O)[C@H](Cc2ccc(C(F)(F)F)cc2)N2CC/C=C\C[C@@H](C2=O)N(C)C(=O)CN(C)C1=O [PP1497]	A (a compound having 10 or more and less than 20 is denoted as A)	A (a compound having 10 or more and less than 20 is denoted as A)	10.7
CC[C@H](C)[C@@H]1NC(=O)[C@H](CC2CC2)N(C)C(=O)C[C@@H](C(=O)N(C)C)N(C)C(=O)[C@H](C2CCCC2)N(C)C(=O)C2(CCC2)NC(=O)[C@@H]2C[C@@H](C(F)(F)F)CN2C(=O)[C@H](CCc2cc(F)c(C(F)(F)F)c(F)c2)NC(=O)CN(C)C(=O)[C@H](Cc2ccc(C(F)(F)F)cc2)N2CC/C=C\C[C@@H](C2=O)N(C)C(=O)CN(C)C1=O [PP1498]	A (a compound having 10 or more and less than 20 is denoted as A)	A (a compound having 10 or more and less than 20 is denoted as A)	10.3
CC[C@H](C)[C@@H]1NC(=O)[C@H](CC2CC2)N(C)C(=O)C[C@@H](C(=O)N(C)C)N(C)C(=O)[C@H](C2CCCC2)N(C)C(=O)C2(CCC2)NC(=O)[C@@H]2C[C@H](C)CN2C(=O)[C@H](CCc2cc(F)c(C(F)(F)F)c(F)c2)NC(=O)CN(C)C(=O)[C@H](Cc2ccc(C(F)(F)F)cc2)N2CC/C=C\C[C@@H](C2=O)N(C)C(=O)CN(C)C1=O [PP1499]	A (a compound having 10 or more and less than 20 is denoted as A)	B (a compound having 3 or more and less than 10 is denoted as B)	5.5
CC[C@H](C)[C@@H]1NC(=O)[C@H](CC2CC2)N(C)C(=O)C[C@@H](C(=O)N(C)C)N(C)C(=O)[C@H](C2CCCC2)N(C)C(=O)C2(CCC2)NC(=O)[C@@H]2CC(F)(F)CN2C(=O)[C@H](CCc2cc(F)c(C(F)(F)F)c(F)c2)NC(=O)CN(C)C(=O)[C@H](Cc2ccc(C(F)(F)F)cc2)N2CC/C=C\C[C@@H](C2=O)N(C)C(=O)CN(C)C1=O [PP1500]	A (a compound having 10 or more and less than 20 is denoted as A)	A (a compound having 10 or more and less than 20 is denoted as A)	6.9
CC[C@H](C)[C@@H]1NC(=O)[C@H](CC2CC2)N(C)C(=O)C[C@@H](C(=O)N(C)C)N(C)C(=O)[C@H](C2CCCC2)N(C)C(=O)C2(CC(C)(C)C2)NC(=O)[C@@H]2C[C@@H](F)CN2C(=O)[C@H](CCc2cc(F)c(C(F)(F)F)c(F)c2)NC(=O)CN(C)C(=O)[C@H](Cc2ccc(C(F)(F)F)cc2)N2CC/C=C\C[C@@H](C2=O)N(C)C(=O)CN(C)C1=O [PP1501]	A (a compound having 10 or more and less than 20 is denoted as A)	A (a compound having 10 or more and less than 20 is denoted as A)	1.5
CC[C@H](C)[C@@H]1NC(=O)[C@H](CC2CCCC2)N(C)C(=O)C[C@@H](C(=O)N(C)C)N(C)C(=O)[C@H](C2CCCC2)N(C)C(=O)C2(CCC2)NC(=O)[C@@H]2C[C@@H](F)CN2C(=O)[C@H](CCc2cc(F)c(C(F)(F)F)c(F)c2)NC(=O)CN(C)C(=O)[C@H](Cc2ccc(C(F)(F)F)cc2)N2CC/C=C\C[C@@H](C2=O)N(C)C(=O)CN(C)C1=O [PP1502]	A (a compound having 10 or more and less than 20 is denoted as A)	A (a compound having 10 or more and less than 20 is denoted as A)	2
CC[C@H](C)[C@@H]1NC(=O)[C@H](CC2CC2)N(C)C(=O)C[C@@H](C(=O)N2CCCC2)N(C)C(=O)[C@H](C2CCCC2)N(C)C(=O)C2(CCCC2)NC(=O)[C@@H]2C[C@@H](F)CN2C(=O)[C@H](CCc2cc(F)c(C(F)(F)F)c(F)c2)NC(=O)CN(C)C(=O)[C@H](Cc2ccc(C(F)(F)F)cc2)N2CC/C=C\C[C@@H](C2=O)N(C)C(=O)CN(C)C1=O [PP1503]	A (a compound having 10 or more and less than 20 is denoted as A)	A (a compound having 10 or more and less than 20 is denoted as A)	3.8
CC[C@H](C)[C@@H]1NC(=O)[C@H](CC2CC2)N(C)C(=O)C[C@@H](C(=O)N(C)C)N(C)C(=O)[C@H](C2CCCC2)N(C)C(=O)C2(CC(C)(C)C2)NC(=O)[C@@H]2C[C@@H](C(F)(F)F)CN2C(=O)[C@H](CCc2cc(F)c(C(F)(F)F)c(F)c2)NC(=O)CN(C)C(=O)[C@H](Cc2ccc(C(F)(F)F)cc2)N2CC/C=C\C[C@@H](C2=O)N(C)C(=O)CN(C)C1=O [PP1504]	A (a compound having 10 or more and less than 20 is denoted as A)	A (a compound having 10 or more and less than 20 is denoted as A)	38
CC[C@H](C)[C@@H]1NC(=O)[C@H](CC2CCCC2)N(C)C(=O)C[C@@H](C(=O)N(C)C)N(C)C(=O)[C@H](C2CCCC2)N(C)C(=O)C2(CCC2)NC(=O)[C@@H]2C[C@@H](C(F)(F)F)CN2C(=O)[C@H](CCc2cc(F)c(C(F)(F)F)c(F)c2)NC(=O)CN(C)C(=O)[C@H](Cc2ccc(C(F)(F)F)cc2)N2CC/C=C\C[C@@H](C2=O)N(C)C(=O)CN(C)C1=O [PP1505]	A (a compound having 10 or more and less than 20 is denoted as A)	A (a compound having 10 or more and less than 20 is denoted as A)	4
CC[C@H](C)[C@@H]1NC(=O)[C@H](CC2CC2)N(C)C(=O)C[C@@H](C(=O)N2CCCC2)N(C)C(=O)[C@H](C2CCCC2)N(C)C(=O)C2(CCCC2)NC(=O)[C@@H]2C[C@@H](C(F)(F)F)CN2C(=O)[C@H](CCc2cc(F)c(C(F)(F)F)c(F)c2)NC(=O)CN(C)C(=O)[C@H](Cc2ccc(C(F)(F)F)cc2)N2CC/C=C\C[C@@H](C2=O)N(C)C(=O)CN(C)C1=O [PP1506]	AA (a compound having 20 or more is denoted as AA)	A (a compound having 10 or more and less than 20 is denoted as A)	73.4
